Test results: patent US20240400584A1, “COMPOUNDS AND METHODS FOR MODULATING SPLICING” (REMIX THERAPEUTICS INC., priority 2021, published 2024)
pIC50: −log10 of the molar value.

Key:
MYB = assay: Gene panel canonical junction qPCR assay, MYB CJ mRNA (Table 7); type: cell-based; settings: Homo sapiens, read-out: MYB CJ mRNA decrease IC50
In short: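 Canonical-junction transcript levels are quantified by RT-qPCR after compound treatment of K562 or A673 cells. Primers or a CY5 probe overlap the exon junction; signals are normalized to GAPDH, GUSB or PPIA and to DMSO, then scaled to a set ΔCt assay window and fitted for IC50.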

[1] = system: HiBit-tagged HTT in K562 cells; assay: HiBiT protein abundance assay, HTT; type: cell-based, human; settings: HiBiT-modified K562 cells, 24 hours, luminescence
Method: (§1) Compounds described herein were used to screen for effects on quantitative protein abundance using a HiBit assay system (Promega). Quantitative protein abundance was determined by measuring the protein levels of HiBit-tagged protein targets expressed in cell culture via luminescence using the Nano-Glo HiBiT Lytic Detection System, which uses a split complementation assay format to reconstitute NanoBiT enzyme to generate a luminescent signal. A protein abundance assay was developed such that endogenous protein targets could be modified with the HiBiT peptide tag and their abundance could be assessed after compound treatment. Briefly, K562 cell lines containing a HiBiT-modification were treated with various compounds described herein (e.g., compounds of Formulas (I)). After treatment for 24 hours, the protein abundance of a specific target was determined by measuring luminescence.
(§2) Cells were maintained in IMDM with 10% FBS. Before the assay, cells were diluted with […] growth media (IMDM+[…] media) and were seeded in a 384-well plate at a density of 10000 cells/well (for each cell line listed in Table 8). Each compound was prepared as a 10-point 3-fold serial dilution in DMSO with the top dose at a final concentration of 10 μM in the well. Unmodified K562 cells were added at the previously specified density with DMSO to serve as an assay baseline and positive control (PC) and DMSO only with the respective modified cell lines was added to the negative control (NC) columns. Final DMSO concentration was kept at or below 0.25% o. Treated cell plates were placed in an incubator at 37° C. with […] for 24 hours. After 24 hours, 25 μL of Complete HiBit Lytic reagent was added to each well at room temperature (e.g. one plate requiring 10 mL Lytic Buffer, 100 μL LgBiT Protein, 200 μL Lytic Substrate), shaken for 5 minutes at 600 RPM, then left to sit for 10 minutes for signal to stabilize before reading on a Spark Cyto plate reader (Tecan) with a 500 ms measurement time.
(§3) To determine compound effects on protein abundance of each target in Table 9, the percent response for each respective cell line was calculated at each compound concentration as follows:
(§4) For the normalized response at each concentration, a four-parameter logistical regression was fit to the data and the response was interpolated at the […] to determine a concentration for protein abundance at 50% o (IC50) the untreated control.

[2] = system: HiBit-tagged MYB in K562 cells; assay: HiBiT protein abundance assay, MYB; type: cell-based, human; settings: HiBiT-modified K562 cells, 24 hours, luminescence
Method: as §1, §2, §3, §4

[3] = system: HiBit-tagged Target C in K562 cells; assay: HiBiT protein abundance assay, Target C; type: cell-based, human; settings: HiBiT-modified K562 cells, 24 hours, luminescence
Method: as §1, §2, §3, §4

| Structure (SMILES) | pIC50 (MYB) | pIC50 [1] | pIC50 [2] | pIC50 [3] |
| --- | --- | --- | --- | --- |
| c1cnn(-c2ccc3c(c2)COc2nc(NC4CNC4)ccc2-3)c1 [Compound 166] | < 5.00 | 5.00 to 6.00 | 5.00 to 6.00 | < 5.00 |
| Cc1cnc(-c2ccc3c(c2)COc2nc(N(C)[C@@H]4C[C@H]5CC[C@@H](C4)N5)ccc2-3)o1 [Compound 206] | 6.00 to 7.00 | > 7.00 | 6.00 to 7.00 | 6.00 to 7.00 |
| c1cc2c(cc1-c1cn[nH]c1)COc1nc(N3CCC34CCNC4)ccc1-2 (stereo not drawn) [Compound 207] | 5.00 to 6.00 | 5.00 to 6.00 | 5.00 to 6.00 | 5.00 to 6.00 |
| Cc1ncc(-c2ccc3c(c2)COc2nc(O[C@@H]4C[C@H]5C[C@@H](C4)N5)ccc2-3)s1 [Compound 208] | 6.00 to 7.00 | > 7.00 | 6.00 to 7.00 | > 7.00 |
| c1cc2c(cc1-c1cn[nH]c1)COc1nc(O[C@@H]3C[C@H]4CC[C@@H](C3)N4)ccc1-2 [Compound 218] | 6.00 to 7.00 | 6.00 to 7.00 | > 7.00 | 6.00 to 7.00 |
| COc1cc(-c2ccc3c(c2)COc2nc(N4CCC(NC5(C)CCC5)C4)ccc2-3)cnn1 (stereo not drawn) [Compound 285, 1-[8-(6-methoxypyridazin-4-yl)-6H-isochromeno[3,4-b]pyridin-3-yl]-N-(1-methylcyclobutyl)pyrrolidin-3-amine] | 6.00 to 7.00 | 6.00 to 7.00 | 6.00 to 7.00 | 6.00 to 7.00 |
| CC(C)Oc1cnnc(-c2ccc3c(c2)COc2nc(N4CCC(NC(C)(C)C)C4)ccc2-3)c1 (stereo not drawn) [Compound 286] | < 5.00 | 5.00 to 6.00 | 5.00 to 6.00 | 5.00 to 6.00 |
| COc1cc(-c2ccc3c(c2)COc2nc(N4CCN[C@@H](C)C4)ccc2-3)cnn1 [Compound 287] | 5.00 to 6.00 | 6.00 to 7.00 | 6.00 to 7.00 | 6.00 to 7.00 |
| COc1cc(-c2ccc3c(c2)COc2nc(O[C@@H]4C[C@H]5COC[C@@H](C4)N5)ccc2-3)cnn1 [Compound 290, (exo)-7-{[8-(6-methoxypyridazin-4-yl)-6H-isochromeno[3,4-b]pyridin-3-yl]oxy}-3-oxa-9-azabicyclo[3.3.1]nonane] | 6.00 to 7.00 | > 7.00 | 6.00 to 7.00 | > 7.00 |
| COc1cc(-c2ccc3c(c2)COc2nc(N4CCC(N5CCCC5)C4)ccc2-3)cnn1 (stereo not drawn) [Compound 305] | 5.00 to 6.00 | 6.00 to 7.00 | 5.00 to 6.00 | 6.00 to 7.00 |
| COc1cc(-c2ccc3c(c2)COc2nc(N4CCC(N(C)C)C4)ccc2-3)cnn1 (stereo not drawn) [Compound 306, 1-[8-(6-methoxypyridazin-4-yl)-6H-isochromeno[3,4-b]pyridin-3-yl]-N,N-dimethylpyrrolidin-3-amine] | 5.00 to 6.00 | 6.00 to 7.00 | 5.00 to 6.00 | 6.00 to 7.00 |
| COc1cc(-c2ccc3c(c2)COc2nc(N4CCC(N(C)C5CCC5)C4)ccc2-3)cnn1 (stereo not drawn) [Compound 307, N-cyclobutyl-1-[8-(6-methoxypyridazin-4-yl)-6H-isochromeno[3,4-b]pyridin-3-yl]-N-methylpyrrolidin-3-amine] | 5.00 to 6.00 | 6.00 to 7.00 | 6.00 to 7.00 | 6.00 to 7.00 |
